Three compounds from patent publication US20130210901A1, “METHOD OF TREATING NEURODEGENERATIVE DISEASES” (Yissum Research Development Company of the Hebrew …, priority 2010, published 2013) can be followed below.

Like-named read-outs stand apart in the source and are kept apart here.

The test system of one data set is hnRNP A/B. As to the kind of experiment: hnRNP A/B expression in primary neuronal cultures incubated with cholinergic agonist. Type of data set: cell-based, mouse. The conditions noted are these: 10 μM, 48 hours. The protocol: Primary mixed cortical cultures: Primary mouse cultures of neurons and glia were produced from E16 embryos. Pregnant mice were anesthetized with isoflurane and sacrificed by cervical dislocation. The uterus was removed and placed on ice. After 5 minutes the heads were dissected under binocular and cortices were removed, placed in cold DMEM, and triturated with a scalpel and up and down pippeting. The medium was replaced with neurobasal medium supplemented with 1:50 B27, 2 mM L-Glutamine (Invitrogen, Grand Island, N.Y.), 50 U penicillin and 50 μg/ml streptomycin (Biological Industries, Beit-haemek, Israel), cells were counted and plated in 12 or 24-well plated pre-treated with 10 μg/ml poly-lysine (Sigma, St. Louis). For confocal microscopy cells were plated on glass cover slips similarly treated.
Immunohistochemistry and immunofluorescence: Paraffin slides were rehydrated by washing in xylene and serial dilutions of ethanol in water. Heat-induced antigen retrieval involved boiling slides in 10 mM pH 6 citrate buffer for 10 minutes. Hydrogen peroxide methanol quench was performed for slides later developed with 3,3′-Diaminobenzidine tetrahydrochloride (DAB). […]

In the next data set the test system is miRNA-132. As to the kind of experiment: miRNA expression in temporal cortex 48 hours after muscarinic agonist injection (RT-PCR). Type of data set: in vivo, mouse. The note with it: 48 hours after injections. On the procedure:
(§1) β-actin and GAPDH were used as reference transcripts. Annealing temperature was 60° C. for all primers. Serial dilution of samples served to evaluate primers efficiency and the appropriate cDNA concentration that yields linear changes. -RT controls verified lack of genomic DNA. miRNA quantification using The TaqMan miRNA Assays (Applied Biosystems) was conducted in two-step RT-PCR kit according to the manufacturer's instructions.

The next data set concerns miRNA-211. Described as above. Format: in vivo, mouse. The note with it: 48 hours after injections. The protocol: as §1
A further data set deals with miR-211. As to the kind of experiment: Antisense blockage of miR-211 in cultured N9 cells, hnRNP A/B levels. Type of data set: cell-based.

In the case of `C[N+](C)(C)CCOC(N)=O` [carbachol], in the data set with hnRNP A/B, the “expression of hnRNP A/B” value is given as “increased”.

Regarding `CC[C@@H]1C(=O)OC[C@@H]1Cc1cncn1C` [muscarinic agonist, pilocarpine], in the data set with miRNA-132, the “levels of miRNA-132” value is “increased”. The “levels of miRNA-211” value with miRNA-211 is reported as “reduced”.

On to “Antisense oligonucleotides to miR-211: locked nucleic acid oligonucleotide complementary to miR-211; miR211 antagonist e.g. SEQ ID NO: 87 (antisense AGGCGAAGGATGACAAAGGGAA; locked nucleic acid oligonucleotide, pattern not given here)”, for which the entries for the “hnRNP A/B levels” value in the data set on miR-211 and in the data set on miR-211 (listed as locked nucleic acid complementary oligonucleotide) were “increased” and “increases”, respectively.
